Reference: patent US10519152B2, “Compounds and their use in treating cancer” (AstraZeneca AB, priority 2017, dated 2019)

Experiments:
[1] = target: T1, Estrogen Receptor (ERα) in MCF-7 human ductal carcinoma breast cell line (Homo sapiens, UniProt P03372); test: MCF-7 ER degradation assay (cell based immuno-fluorescence); settings: MCF-7 cells, 18-22 hours incubation, 50% reduction of ERα expression; single experiment or average of two or more; read-out: MCF-7 ER degradation IC50
T1 construct: endogenous in cells; host or cells: MCF-7
T1 sequence (P03372 1-595): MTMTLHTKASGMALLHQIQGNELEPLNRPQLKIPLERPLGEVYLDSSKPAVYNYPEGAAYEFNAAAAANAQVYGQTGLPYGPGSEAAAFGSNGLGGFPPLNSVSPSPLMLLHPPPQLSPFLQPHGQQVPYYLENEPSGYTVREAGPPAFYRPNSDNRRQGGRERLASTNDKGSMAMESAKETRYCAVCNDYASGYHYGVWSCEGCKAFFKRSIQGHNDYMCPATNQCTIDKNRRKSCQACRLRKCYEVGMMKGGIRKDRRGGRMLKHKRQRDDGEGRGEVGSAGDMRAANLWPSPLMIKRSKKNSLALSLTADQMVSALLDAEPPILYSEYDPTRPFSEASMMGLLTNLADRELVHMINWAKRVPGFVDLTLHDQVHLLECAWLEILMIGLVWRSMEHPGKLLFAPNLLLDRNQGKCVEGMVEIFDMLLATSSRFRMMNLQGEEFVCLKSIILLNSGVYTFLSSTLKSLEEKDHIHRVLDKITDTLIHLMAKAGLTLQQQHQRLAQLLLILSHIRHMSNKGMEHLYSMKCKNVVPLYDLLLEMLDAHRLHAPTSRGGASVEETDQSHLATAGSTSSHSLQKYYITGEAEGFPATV
In short: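 MCF-7 human ductal carcinoma breast cells were seeded at 3.75×10^4 cells per mL (40 μL per well) in 384 well plates with phenol red free DMEM containing 2 mM L-Glutamine and 5% (v/v) Charcoal/Dextran treated foetal calf serum. After overnight culture, compounds were acoustically dispensed, incubated 18-22 hours, then cells were formaldehyde-fixed and immunostained for ERα.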

[2] = target: T2, recombinant human Estrogen Receptor alpha ligand binding domain, residues 307-554 (ER alpha-LBD (GST)) (Homo sapiens, UniProt P03372); test: ERα binding assay (LanthaScreen TR-FRET competition); settings: TR-FRET competition with Fluormone ES2 tracer, 4 hours at room temperature; single experiment or average of two or more
T2 construct: made in house
T2 sequence (P03372 307-554): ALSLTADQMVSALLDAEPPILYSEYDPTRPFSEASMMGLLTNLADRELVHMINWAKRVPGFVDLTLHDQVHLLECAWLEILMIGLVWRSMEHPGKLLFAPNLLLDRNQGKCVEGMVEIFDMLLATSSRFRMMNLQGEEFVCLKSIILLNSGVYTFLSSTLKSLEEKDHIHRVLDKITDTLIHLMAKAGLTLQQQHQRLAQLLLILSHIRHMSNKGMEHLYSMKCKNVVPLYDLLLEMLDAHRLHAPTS

Row | Compound | DC50 [1] [nM] | IC50 [2] [nM]
1 | Cc1ncsc1-c1ccc(CNC(=O)[C@@H]2C[C@@H](O)CN2C(=O)[C@@H](NC(=O)COCCOCCOCCOc2cc(F)c([C@@H]3c4[nH]c5ccccc5c4C[C@@H](C)N3C[C@H](C)C(=O)O)c(F)c2)C(C)(C)C)cc1 [Example 30, (S)-3-((1R,3R)-1-(2,6-Difluoro-4-(((S)-13-((2S,4R)-4-hydroxy-2-((4-(4-methylthiazol-5-yl)benzyl)carbamoyl)pyrrolidine-1-carbonyl)-14,14-dimethyl-11-oxo-3,6,9-trioxa-12-azapentadecyl)oxy)phenyl)-3-methyl-1,3,4,9-tetrahydro-2H-pyrido[3,4-b]indol-2-yl)-2-methylpropanoic Acid] | 174 | 4.1
2 | Cc1ncsc1-c1ccc(CNC(=O)[C@@H]2C[C@@H](O)CN2C(=O)[C@@H](NC(=O)CN2CC3(CCN(CCOc4cc(F)c([C@@H]5c6[nH]c7ccccc7c6C[C@@H](C)N5CC(C)(C)F)c(F)c4)CC3)C2)C(C)(C)C)cc1 [Example 42, (2S,4R)-1-((S)-2-(2-(7-(2-(3,5-difluoro-4-((1R,3R)-2-(2-fluoro-2-methylpropyl)-3-methyl-2,3,4,9-tetrahydro-1H-pyrido[3,4-b]indol-1-yl)phenoxy)ethyl)-2,7-diazaspiro[3.5]nonan-2-yl)acetamido)-3,3-dimethylbutanoyl)-4-hydroxy-N-(4-(4-methylthiazol-5-yl)benzyl)pyrrolidine-2-carboxamide] | 1.9 | 1.3
3 | Cc1ncsc1-c1ccc(CNC(=O)[C@@H]2C[C@@H](O)CN2C(=O)[C@@H](NC(=O)CCCN2CCN(CCCOc3cc(F)c([C@@H]4c5[nH]c6ccccc6c5C[C@@H](C)N4CC(C)(C)F)c(F)c3)CC2)C(C)(C)C)cc1 [Example 1, (2S,4R)-1-((S)-2-(4-(4-(3-(3,5-Difluoro-4-((1R,3R)-2-(2-fluoro-2-methylpropyl)-3-methyl-2,3,4,9-tetrahydro-1H-pyrido[3,4-b]indol-1-yl)phenoxy)propyl)piperazin-1-yl)butanamido)-3,3-dimethylbutanoyl)-4-hydroxy-N-(4-(4-methylthiazol-5-yl)benzyl)pyrrolidine-2-carboxamide] | 0.7 | 0.9
4 | Cc1ncsc1-c1ccc(CNC(=O)[C@@H]2C[C@@H](O)CN2C(=O)[C@@H](NC(=O)C(C)(C)OCCCCCCOc2cc(F)c([C@@H]3c4[nH]c5ccccc5c4C[C@@H](C)N3CC(C)(C)F)c(F)c2)C(C)(C)C)cc1 [Example 117, (2S,4R)-1-((S)-2-(2-((6-(3,5-Difluoro-4-((1R,3R)-2-(2-fluoro-2-methylpropyl)-3-methyl-2,3,4,9-tetrahydro-1H-pyrido[3,4-b]indol-1-yl)phenoxy)hexyl)oxy)-2-methylpropanamido)-3,3-dimethylbutanoyl)-4-hydroxy-N-(4-(4-methylthiazol-5-yl)benzyl)pyrrolidine-2-carboxamide] | 22 | 0.8
5 | Cc1ncsc1-c1ccc(CNC(=O)[C@@H]2C[C@@H](O)CN2C(=O)[C@@H](NC(=O)CN2CCC3(CC2)CCN(C(=O)COc2cc(F)c([C@@H]4c5[nH]c6ccccc6c5C[C@@H](C)N4CC(C)(C)F)c(F)c2)CC3)C(C)(C)C)cc1 [Example 44, (2S,4R)-1-((S)-2-(2-(9-(2-(3,5-difluoro-4-((R,3R)-2-(2-fluoro-2-methylpropyl)-3-methyl-2,3,4,9-tetrahydro-1H-pyrido[3,4-b]indol-1-yl)phenoxy)acetyl)-3,9-diazaspiro[5.5]undecan-3-yl)acetamido)-3,3-dimethylbutanoyl)-4-hydroxy-N-(4-(4-methylthiazol-5-yl)benzyl)pyrrolidine-2-carboxamide] | 1.8 | 1.3
6 | Cc1ncsc1-c1ccc([C@H](CN(C)C)NC(=O)[C@@H]2C[C@@H](O)CN2C(=O)[C@@H](NC(=O)COCCOCCOCCOc2cc(F)c([C@@H]3c4[nH]c5ccccc5c4C[C@@H](C)N3CC(C)(C)F)c(F)c2)C(C)(C)C)cc1 [Example 104, (2S,4R)-1-[(2S)-2-[[2-[2-[2-[2-[3,5-Difluoro-4-[(1R,3R)-2-(2-fluoro-2-methyl-propyl)-3-methyl-1,3,4,9-tetrahydropyrido[3,4-b]indol-1-yl]phenoxy]ethoxy]ethoxy]ethoxy]acetyl]amino]-3,3-dimethyl-butanoyl]-N-[(1R)-2-(dimethylamino)-1-[4-(4-methylthiazol-5-yl)phenyl]ethyl]-4-hydroxy-pyrrolidine-2-carboxamide] | 54 | 4.6
7 | Cc1ncsc1-c1ccc(CNC(=O)[C@@H]2C[C@@H](O)CN2C(=O)[C@@H](N(C)C(=O)COCCOCCOCCOc2cc(F)c([C@@H]3c4[nH]c5ccccc5c4C[C@@H](C)N3CC(C)(C)F)c(F)c2)C(C)(C)C)cc1 [Example 31, (2S,4R)-1-((S)-2-(tert-Butyl)-14-(3,5-difluoro-4-((1R,3R)-2-(2-fluoro-2-methylpropyl)-3-methyl-2,3,4,9-tetrahydro-1H-pyrido[3,4-b]indol-1-yl)phenoxy)-3-methyl-4-oxo-6,9,12-trioxa-3-azatetradecanoyl)-4-hydroxy-N-(4-(4-methylthiazol-5-yl)benzyl)pyrrolidine-2-carboxamide] | 0.3 | 0.6
8 | Cc1ncsc1-c1ccc(CNC(=O)[C@@H]2C[C@@H](O)CN2C(=O)[C@@H](NC(=O)CCOCCCCOc2cc(F)c([C@@H]3c4[nH]c5ccccc5c4C[C@@H](C)N3CC(C)(C)F)c(F)c2)C(C)(C)C)cc1 [Example 92, (2S,4R)-1-((S)-2-(3-(4-(3,5-difluoro-4-((1R,3R)-2-(2-fluoro-2-methylpropyl)-3-methyl-2,3,4,9-tetrahydro-1H-pyrido[3,4-b]indol-1-yl)phenoxy)butoxy)propanamido)-3,3-dimethylbutanoyl)-4-hydroxy-N-(4-(4-methylthiazol-5-yl)benzyl)pyrrolidine-2-carboxamide] | 0.4 | 0.6
9 | Cc1ncsc1-c1ccc(CNC(=O)[C@@H]2C[C@@H](O)CN2C(=O)[C@@H](NC(=O)COCCCOc2cc(F)c([C@@H]3c4[nH]c5ccccc5c4C[C@@H](C)N3CC(C)(C)F)c(F)c2)C(C)(C)C)cc1 [Example 41, (2S,4R)-1-((S)-2-(2-(3-(3,5-difluoro-4-((1R,3R)-2-(2-fluoro-2-methylpropyl)-3-methyl-2,3,4,9-tetrahydro-1H-pyrido[3,4-b]indol-1-yl)phenoxy)propoxy)acetamido)-3,3-dimethylbutanoyl)-4-hydroxy-N-(4-(4-methylthiazol-5-yl)benzyl)pyrrolidine-2-carboxamide] | 1.7 | 0.7
10 | Cc1ncsc1-c1ccc(CNC(=O)[C@@H]2C[C@@H](O)CN2C(=O)[C@@H](NC(=O)CN2CCN(CCCCCOc3cc(F)c([C@@H]4c5[nH]c6ccccc6c5C[C@@H](C)N4CC(C)(C)F)c(F)c3)CC2)C(C)(C)C)cc1 [Example 2, (2S,4R)-1-((S)-2-(2-(4-(5-(3,5-Difluoro-4-((1R,3R)-2-(2-fluoro-2-methylpropyl)-3-methyl-2,3,4,9-tetrahydro-1H-pyrido[3,4-b]indol-1-yl)phenoxy)pentyl)piperazin-1-yl)acetamido)-3,3-dimethylbutanoyl)-4-hydroxy-N-(4-(4-methylthiazol-5-yl)benzyl)pyrrolidine-2-carboxamide] | 2.9 | 0.6
11 | Cc1ncsc1-c1ccc([C@H](C)NC(=O)[C@@H]2C[C@@H](O)CN2C(=O)[C@@H](NC(=O)COCCCOCCCCOc2cc(F)c([C@@H]3c4[nH]c5ccccc5c4C[C@@H](C)N3CC(C)(C)F)c(F)c2)C(C)(C)C)cc1 [Example 155, (2S,4R)-1-((S)-2-(2-(3-(4-(3,5-Difluoro-4-((1R,3R)-2-(2-fluoro-2-methylpropyl)-3-methyl-2,3,4,9-tetrahydro-1H-pyrido[3,4-b]indol-1-yl)phenoxy)butoxy)propoxy)acetamido)-3,3-dimethylbutanoyl)-4-hydroxy-N—((S)-1-(4-(4-methylthiazol-5-yl)phenyl)ethyl)pyrrolidine-2-carboxamide] | 0.7 | 0.3
